In patent US20130131321A1, “LIGANDS FOR ANTIBODY AND Fc-FUSION PROTEIN PURIFICATION BY AFFINITY CHROMATOGRAPHY” (GRAFFINITY PHARMACEUTICALS GMBH, priority 2010, published 2013):

Key:
[1] = tested on: human poly-IgG (h-poly-IgG); assay: Microtiter plate chromatography of resins, human poly-IgG (bound, yield); assay type: binding
[2] = tested on: Anti RhD IgG; assay: SPR screening of chemical microarrays, Anti RhD IgG; assay type: binding; conditions: chemical microarray, immobilized ligand
Source text: (§1) Graffinity has developed high density chemical microarrays comprising thousands of small molecules immobilized onto gold chips. The arrays are constructed using maleimide-thiol coupling chemistry in combination with high density pintool spotting. For the construction, glass plates are microstructured by photolithographical methods in order to define up to 9,216 sensor fields per array. A subsequently applied gold coating provides the basis for the SPR effect and enables the formation of a binary, mixed self assembled monolayer (SAM) of two different thiols. […]
(§2) Surface plasmons are collective oscillations of electrons at a metal surface which can be resonantly excited by polarized light of appropriate wavelength and incidence angle. […] Processes which alter the local refractive index in close proximity to the metal surface (such as antibody binding to the immobilized ligands) can therefore be monitored sensitively. […] While scanning over a range of wavelengths covering the SPR resonance conditions, reflection images are recorded stepwise. […]
(§3) The experimental results of the microarray screening campaigns were analyzed by manual hit selection using in-house developed software routines as well as by an in-depth data analysis by commercially available data mining tools. […]

[3] = tested on: Bevacizumab Fab fragment; assay: SPR screening of chemical microarrays, Bevacizumab Fab fragment; assay type: binding, humanized; conditions: chemical microarray, immobilized ligand
Source text: as §1, §2, §3

[4] = tested on: Bevacizumab Fc fragment; assay: SPR screening of chemical microarrays, Bevacizumab Fc fragment; assay type: binding, humanized; conditions: chemical microarray, immobilized ligand
Source text: as §1, §2, §3

[5] = tested on: rabbit poly-IgGs; assay: Microtiter plate chromatography of resins, rabbit poly-IgG; assay type: binding
Experimental: Resins were assessed in packed mode by microtiter plate chromatography. For each column, approximately 30 μl of resin were transferred to a 384-well filter plate and sealed with appropriate top frits.
Columns were equilibrated with 6.7 column volumes (cv) of phosphate buffered saline (0.15 M NaCl, 20 mM sodium phosphate, pH 7.3; PBS) prior to injection. Either 3.3 cv of whole IgGs dissolved at 0.75 mg ml^−1, Fab or Fc fragments dissolved at 0.25 mg ml^−1 (all three in PBS) or host cell proteins (HCP) were injected onto columns. Antibody fragments of Bevacizumab (Fab and Fc) were prepared by cleavage of whole IgG with papain protease (3) according to the protocol of the manufacturer. […] Volumes transferred were spun through columns at 50 g for 1-2 min. During injection of samples, acceleration was reduced to 10 g and centrifugation time increased to 5-10 min. Effluent fractions were collected in 384-well plates and concentrations of protein analyzed by Bradford assay. Protein masses mi, mft and me (see below) were calculated as the product of fraction volume and measured protein concentration.
The fraction of ‘bound’ protein was calculated as the difference between the total mass of protein injected mi and the mass of protein detected in the flowthrough mft, divided by the total mass of protein injected.
The ‘yield’ of protein was calculated as the mass of protein eluted me, divided by the mass of protein injected mi.
the fraction of ‘bound’ protein and the ‘yield’ of protein were calculated for each resin based on data for whole IgG-antibodies. In the case of Bevacizumab fragments and host cell proteins, only the fraction of ‘bound’ protein is given. Selectivity of resins was calculated from data for Bevacizumab Whole IgG and host cell proteins. Due to limited experimental precision, selectivity was truncated beyond values of 10.

[6] = tested on: host cell proteins (HCP); assay: Microtiter plate chromatography of resins, host cell proteins (bound); assay type: binding, CHO; conditions: host cell proteins

COc1ccc(NC(=O)c2cc(-c3ccco3)n(C)n2)cc1C(=O)NCCCN [Ligand L1, 5-[5-(2-Furyl)-1-methylpyrazol-3-yl]carboxamido-2-methoxybenzoic acid N-(3-aminopropyl)amide]
h-poly-IgG Bound (%) [1]: 100%
h-poly-IgG Yield (%) [1]: 90%
SPR binding to full length Anti RhD IgG [2]: clearly bound
SPR binding to Bevacizumab Fab fragment [3]: only minor binding
SPR binding to Bevacizumab Fc fragment [4]: distinct binding
r-poly-IgG Bound (%) [5]: 100%
r-poly-IgG Yield (%) [5]: 100%
binding of rabbit poly-IgGs ([5]; microtiter plate chromatography, PBS): efficient binding
HCP Bound (%) [6]: 30%
